# Measurements taken from patent publication US20240115549A1, “TREATMENT OF MENTAL DISORDERS” (GH Research Ireland Limited, priority 2022, published 2024).
# How the values were obtained:
# [1] = system: Salmonella typhimurium TA98, TA100, TA1535 and TA1537; test: Bacterial mutation test, Salmonella typhimurium; assay type: cell-based; conditions: up to 5000 μg/plate, with and without S-9
# From the text: These conditions included treatments at concentrations up to […] (the maximum recommended concentration according to current regulatory guidelines), in the absence and in the presence of a rat liver metabolic activation system (S-9).
# [2] = Pharmacokinetics of 5-MeO-DMT and bufotenine after inhalation; assay type: in vivo, human
# [3] = LC-MS/MS of 5-MeO-DMT, bufotenine and 5-MIAA in breastmilk, serum and urine of a treated PPD patient; infant dose estimates; conditions: for Breastmilk concentration / Serum concentration / Urine concentration: second PPD patient, LC-MS/MS
# [4] = 5 kg infant, three feeds of 250 ml
# [5] = 8.5 hrs after last dose, inhaled 5-MeO-DMT
# [6] = 24.0 hrs after last dose, inhaled 5-MeO-DMT
# [7] = 120.0 hrs after last dose, inhaled 5-MeO-DMT
# [8] = timepoint −24.0 hrs (pre-dosing), inhaled 5-MeO-DMT 6 mg then 12 mg
compound,measurement,setting,value
COc1ccc2[nH]cc(CCN(C)C)c2c1 [5-MeO-DMT],Induction of mutation,[1],did not induce mutation
same,Detectability in plasma,"[2]; 3 hours after inhalation, 6-18 mg",no longer detectable
same,Accumulation upon repeated administration,[2]; repeat within 1 to 4 hours,No accumulation
same,DID per kg infant weight,[3]; [4],0.0001385 mg/kg/day
same,Total exposure of the infant (DID),[3]; [4],0.0006924 mg/day
same,Detection in breastmilk,[3]; after 24 hours,did not detect any 5-MeO-DMT
same,Serum concentration at timepoints after 1 hour,[3]; all subsequent timepoints,below the lower limit of quantification
same,Breastmilk concentration,"[3]; 1.0 hrs after last dose, inhaled 5-MeO-DMT",2167.0 pg/mL
same,Breastmilk concentration,"[3]; 2.5 hrs after last dose, inhaled 5-MeO-DMT",560.6 pg/mL
same,Breastmilk concentration,[3]; [5],42.1 pg/mL
same,Breastmilk concentration,[3]; [6],BLG
same,Breastmilk concentration,[3]; [7],BLQ
same,Breastmilk concentration,[3]; [8],BLQ
same,concentration at 1 h,"[3]; female, human, serum, inhaled",133 µg/mL
same,Serum concentration,"[3]; serum, 1.0 hrs after last dose, inhaled 5-MeO-DMT",0.0001329 µg/mL
same,Serum concentration,"[3]; serum, 2.5 hrs after last dose, inhaled 5-MeO-DMT",BLQ
same,Serum concentration,"[3]; serum, 24.0 hrs after last dose, inhaled 5-MeO-DMT",BLQ
same,Serum concentration,"[3]; serum, 120.0 hrs after last dose, inhaled 5-MeO-DMT",BLQ
same,Serum concentration,"[3]; serum, timepoint −24.0 hrs (pre-dosing), inhaled 5-MeO-DMT 6 mg then 12 mg",BLQ
same,Urine concentration,[3]; [5],BLQ
same,Urine concentration,[3]; [6],BLQ
same,Urine concentration,[3]; [7],BLQ
same,Urine concentration,[3]; [8],BLQ
